From the METLIN SMRT retention time set (Domingo-Almenara et al. 2019) come the findings set out here.

This data set can be described thus: gradient 5% acetonitrile 3 min, to 50% in 2 min, to 85% in 15 min, held 3 min, 100 µL/min. Particulars: column: Zorbax Extend-C18 2.1 x 50 mm; eluents: water / acetonitrile, 0.1% formic acid. A digest of the protocol:
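Standards, all pure, were combined into mixtures of ~100 molecules and run at 100 μL/min on a Zorbax Extend-C18 column (2.1 × 50 mm, 1.8 μm) with water and acetonitrile, each containing 0.1% formic acid. A coupled quadrupole time-of-flight mass spectrometer operated in positive and negative ionization mode. Retention time values come from computationally picked adduct peaks, each inspected manually.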
Regarding `Cc1nn(C)c2c(=O)n(C(C)C(=O)NCc3ccc4c(c3)OCO4)ccc12` (stereo not given), the RP-LC retention time is 715 s.
For `CC1CCN(CCCNC(=O)C2CCc3sc(C(=O)N4CCOCC4)cc3C2)CC1` (stereo not given) the value was 596 s.
As for `N#Cc1ccc(-c2nc(-c3cccc(-c4ccn[nH]4)c3)no2)cc1`, the RP-LC retention time was found to be 917 s.
Next, `CN(C)c1cccc(C(=O)N2CCC3(C2)C(=O)N(C)c2ccccc23)c1` (stereo not given): 710 s.
Molecule `COc1cc(NC(=O)C2=C(C)OCCS2)c(Cl)cc1C(=O)N1CCN(C2CCCCC2)CC1` returned an RP-LC retention time of 684 s.
On to `CCc1cc(=O)n(CC(=O)NCc2cccs2)c(-c2ccccc2)n1`, for which the RP-LC retention time stood at 1040 s.
Molecule `COc1ccc(NC(=O)CSc2nccnc2Sc2ccc(C)cc2)cc1OC` displayed an RP-LC retention time of 997 s.
`Cc1cccc(NC(=O)N2CCC(n3cnc4ccc(C)cc4c3=O)CC2)c1` gave an RP-LC retention time of 836 s.
For `CCCN(C)c1nccn2c(=O)n(CC(=O)Nc3cccc(C(F)(F)F)c3)nc12` the value was 753 s.
Molecule `Cc1ccc(-n2ccc(=O)c(-c3nc(-c4ccccc4)no3)n2)cc1` yielded an RP-LC retention time of 888 s.
`Cc1nn(C2CCS(=O)(=O)C2)c(C)c1N1CCN(S(=O)(=O)c2cccs2)CC1` (stereo not given): the RP-LC retention time came to 752 s.
As for `Cc1cc(NC(=O)c2cn3c(n2)CSCC3)ccc1F`, the RP-LC retention time came out at 743 s.
For `CN1CCN(CCNC(=O)c2ccc(NC(=O)C3=CSCCO3)cc2)CC1` the value was 754 s.
For `Cc1cccc(NC(=O)CSc2ccc(N3CCCC(C(=O)NC4CC4)C3)nn2)c1` (stereo not given) the value was 648 s; for `CCOc1cc(=O)n2c(c1C(=O)Nc1ccc(Br)cc1)CCCC2`, 798 s; for `COc1ccc(-c2noc(-c3nc(-c4ccccn4)no3)n2)cc1`, 966 s.
Molecule `COc1cccc(-c2noc(CN3C(=O)COc4ccc(C)cc43)n2)c1OC` returned an RP-LC retention time of 981 s.
The molecule `Cc1cc(C)nc(Nc2nc(-c3ccccc3)c3ccccc3n2)n1` had an RP-LC retention time of 709 s.
For `O=C(NCc1ccc(Cl)cc1)c1cc2sccc2n1Cc1ccc(F)cc1` the value was 1170 s.
Next, `CCN1CCCn2cc(S(=O)(=O)Nc3cc(F)cc(F)c3)cc2C1=O`: 768 s; `COc1ccccc1CC(=O)N1CCC2(CC1)N=C(c1ccc(Cl)cc1)NO2`: 884 s.
In the case of `CC1CCN(S(=O)(=O)c2ccc3c(c2)CCCC(=O)N3CC(=O)Nc2ccc(F)cc2)CC1`, the RP-LC retention time stood at 959 s.
In turn, `Cc1ccc(CNC(=O)CN2CCN(Cc3ccc(F)cc3)C2=O)cc1C` came in with an RP-LC retention time of 835 s.
Molecule `Cc1cnc(C)n1CC1CCN(C(=O)C2CCC2)C1` (stereo not given) displayed an RP-LC retention time of 565 s.
The molecule `Cc1ccccc1-c1nc(-c2cccc(-c3ccnn3C)c2)no1` gave an RP-LC retention time of 1220 s.
Turning to `Cc1nc(-c2csc(S(=O)(=O)N3CCCC(C(=O)Nc4cccc(Cl)c4)C3)c2)no1` (stereo not given), the RP-LC retention time is 1040 s.
In turn, `Cc1cc(C(=O)NCC2Cn3cccc3C(=O)N2C)nn1C` (stereo not given) showed an RP-LC retention time of 599 s.
`CCOC(=O)N1CCN(C(=O)CCc2csc(NC(=O)c3ccc(F)cc3)n2)CC1` gave an RP-LC retention time of 713 s.
In turn, `O=C(C1CCN(c2nc3ccc(-c4ccccc4)nc3s2)CC1)N1CCCCC1` yielded an RP-LC retention time of 1040 s.
For `c1ccc(NN(Cc2ccncc2)c2ccccc2)cc1` the value was 774 s; for `COc1ccc(C(=O)N2CCC3(CC2)NC(=O)c2cc(C)ccc2N3C)cc1OC`, 711 s.
`COc1cccc(CC(=O)N2CCN3CCS(=O)(=O)N(C4CC4)C(=O)C3C2)c1` (stereo not given) yielded an RP-LC retention time of 747 s.
`CCOc1ccccc1C(=O)Nc1cccn2c(C)nnc12`: the RP-LC retention time came to 790 s.
In turn, `CCc1ccc(NC(=O)Cn2c(N3CCOCC3)nc(C)cc2=O)cc1` yielded an RP-LC retention time of 711 s.
Consider `O=C(Cc1ccc(F)cc1)N1CCCCC1c1nncn1CC1CC1` (stereo not given), for which the RP-LC retention time is 735 s.
Consider `Cc1cc(OC(C)C(=O)N(Cc2ccco2)C2CCS(=O)(=O)C2)cc(C)c1Cl` (stereo not given), for which the RP-LC retention time worked out at 1010 s.
`CCc1ccc(C(=O)c2cnc3ccc(OC)cc3c2N2CCN(CC)CC2)cc1` had an RP-LC retention time of 619 s.
As for `COc1ccc(Cl)cc1S(=O)(=O)NCC1CCN(C(=O)c2ccccc2F)CC1`, the RP-LC retention time turned out to be 686 s.
The molecule `CC(C)N(CC[C@H](c1ccccc1)c1cc(CO)ccc1O)C(C)C` gave an RP-LC retention time of 678 s.
The molecule `COc1ccc(Cl)cc1S(=O)(=O)N(C)CC1(C)CCOCC1` displayed an RP-LC retention time of 829 s.
Molecule `CCn1nccc1-c1cccc(-c2noc(C3CCN(S(=O)(=O)c4ccc(Cl)cc4)CC3)n2)c1` gave an RP-LC retention time of 932 s.
The molecule `O=C(c1ccc(Br)cc1)N1CC2C3CCC(O3)C2C1` (stereo not given) returned an RP-LC retention time of 838 s.
For `Cc1ccc(-n2nc(N3CCCN(C(=O)Nc4cccc(C)c4)CC3)ccc2=O)cc1`, the RP-LC retention time came out at 802 s.
Molecule `Nc1ccccc1C(=O)Nc1ccc(Cl)cc1Cl` gave an RP-LC retention time of 1080 s.
As for `O=C(NCc1nnnn1C1CCCCC1)c1c(F)cccc1Cl`, the RP-LC retention time was 763 s.
The molecule `CS(=O)(=O)N1CCCc2cc(C(=O)NCc3cccnc3)ccc21` had an RP-LC retention time of 574 s.
`Cn1nc(C(=O)N2CCCCC2)c2c1CCN(C(=O)CCC(=O)NCCN1CCCCCC1)C2` gave an RP-LC retention time of 590 s.
For `CCS(=O)(=O)c1ccccc1C(=O)Nc1sc(-c2ccccc2)cc1C(N)=O` the value was 814 s; for `CCn1cnc2ccc(-c3noc(COc4ccc(OC)cc4)n3)cc21`, 743 s; for `CCOc1cccc(-c2noc(Cn3ccn(-c4c(C)cccc4C)c(=O)c3=O)n2)c1`, 951 s.
With `Cc1nn(C)c(C)c1S(=O)(=O)N1CCN(C(=O)C(C)Oc2ccccc2)CC1` (stereo not given), the RP-LC retention time stood at 761 s.
In turn, `CCc1nc2cc3c(cc2n1CC(=O)Nc1ccc(OC)cc1)OCCO3` gave an RP-LC retention time of 640 s.
Molecule `Cc1nc(-c2noc(-c3ccc(F)cc3)n2)cn1CC(=O)NCc1ccccc1F` returned an RP-LC retention time of 824 s.
Turning to `CC(C)CCNC(=O)CN1C(=O)CCn2nc(-c3cn(C)c4ccccc34)cc21`, the RP-LC retention time was 807 s.
`O=C(Nc1sc2c(c1C(c1cccnc1)N1CCN(c3ccccn3)CC1)CCCC2)c1ccco1` (stereo not given) showed an RP-LC retention time of 676 s.
Turning to `Cc1nc2nc(-c3ccco3)nn2c(N2CCN(c3ccccn3)CC2)c1C`, the RP-LC retention time is 596 s.
Next, `COC(=O)CNC(=O)Nc1ccc2nc(-c3ccc(F)cc3)cc(OC)c2c1`: 624 s; `COc1ccc(NC(=O)c2sc(-c3cn(C)c4ncccc34)nc2C)c(C)c1`: 881 s.
Next, `Cc1ccc(-c2nc(Nc3ccc(C)c(Cl)c3)sc2CC(=O)O)cc1`: 1100 s.
`COC(=O)Cn1c(-c2ccc(C)cc2)cnc1SCC(=O)Nc1nnc(C)s1` gave an RP-LC retention time of 680 s.
For `Cc1ccc(NS(=O)(=O)c2cn(C)c3ncccc23)cc1` the value was 774 s; for `CCn1nccc1-c1cccc(-c2noc(-c3cc(OC)cc(OC)c3)n2)c1`, 1240 s; for `Cc1cccc(-c2nnc(-c3cccc(S(=O)(=O)N4CCOCC4)c3)o2)c1`, 885 s.
`CN1CCCc2cc(C(CNC(=O)C(=O)NC3CCCCC3)N(C)C)ccc21` (stereo not given) returned an RP-LC retention time of 598 s.
Regarding `COc1cccc(F)c1-c1nc(C)c(C(=O)Nc2nc3ccccc3[nH]2)s1`, the RP-LC retention time turned out to be 779 s.
`O=C(C1CC1)N1CCc2sc(S(=O)(=O)NCc3ccc(F)cc3)cc2C1` returned an RP-LC retention time of 805 s.
For `CCN1C(=O)C(CC(=O)NC(C)C)Sc2ncccc21` (stereo not given) the value was 655 s; for `Nc1nc(N)nc(C2C=CCCC2)n1` (stereo not given), 620 s.
As to `O=C(NCc1ccccc1C(F)(F)F)C1CCCN(c2ncnc3nn(-c4ccc(F)cc4)cc23)C1` (stereo not given), the RP-LC retention time was 754 s.
On to `CC(C)(C)c1ccc(S(=O)(=O)N2CCC(C(=O)NCc3cscn3)CC2)cc1`, for which the RP-LC retention time was 869 s.
`COc1ccc(C2Cn3nnc(-c4nc(-c5ccccc5F)no4)c3CO2)cc1` (stereo not given): the RP-LC retention time worked out at 1090 s.
On to `CC1CCN(CCNC(=O)c2nc(CCS(=O)(=O)c3ccc(F)cc3)no2)CC1`, for which the RP-LC retention time turned out to be 620 s.
Take `O=C([C@@H]1C[C@H](F)CN1C(=O)c1ccccc1)N1CCOCC1`: the RP-LC retention time was 590 s.
Molecule `O=C(NCc1ccc(F)cc1F)C1CCN(c2cnc(N3CCCC3)nc2)CC1` yielded an RP-LC retention time of 668 s.
On to `CC(=O)Nc1c(C)noc1/C=C\c1ccc(S(=O)(=O)N2CCN(c3ccccn3)CC2)cc1`, for which the RP-LC retention time worked out at 643 s.
For the molecule `CCC(C)NC(=O)N1CCN(c2nc3ccccc3n(Cc3ccccc3)c2=O)CC1` (stereo not given), the RP-LC retention time was found to be 981 s.
For `COc1ccc(-c2cn3cccnc3n2)cc1NC(=O)c1ccc(Br)cc1` the value was 738 s; for `COc1ccc(NC(=O)c2ccc3[nH]c4c(c3c2)CN(C(=O)C2CCC2)CC4)c(OC)c1`, 807 s; for `O=C(NCc1ccc2c(c1)OCO2)c1ccc2c(c1)NC(=O)C1CCCCN21` (stereo not given), 765 s.
As to `CCOC(=O)c1[nH]c(C)c(CCC(=O)N2CCC(C(=O)NC(C)c3ccccc3)CC2)c1C` (stereo not given), the RP-LC retention time worked out at 792 s.
